Measured values taken from patent US12635718B2, “Flavanone derivatives and their use as sweetness enhancers” (Firmenich SA, priority 2019, dated 2026).

How the values were obtained:
taste panelists = test: Taste panel rating of sweetness and licorice taste of 5% sucrose solutions; format: in vivo, human; details: scale 0 to 10, no enhancer 5.0
Protocol: A test compound, (2R,3R)-3-acetoxy-5,7,4′-trihydroxyflavanone (A01), was tested in comparison to naringenin for its sweetness enhancement of a 5% (w/w) aqueous solution of sucrose. Taste panelists were asked to taste the following 5% sucrose solutions in Henniez water and rate their sweetness on a scale from 0 to 10, and to rate the presence of any licorice taste in the sample on a scale from 0 to 10.
The test compound A01 was tested in comparison to other sweetness enhancers in a similar test to that set forth in Example 1. The comparative compounds are taxifolin 3-O-acetate (A02), and ampelopsin 3-O-acetate (A03).

panelists = test: Sweetener replacement test: panel choice between beverages (rebaudioside M, sucralose); format: in vivo, human; details: for Panelists (of 45) who selected the beverage with test compound: statistical equivalence
Excerpt: In one test, 45 panelists were asked to select between a beverage sweetened with 450 ppm rebaudioside M and a beverage with 300 ppm rebaudioside M and 12 ppm test compound A01. Of the 45 panelists, 23 selected the former, and 22 selected the latter, which is a statistical equivalence. […] In another test, 45 panelists were asked to select between a beverage sweetened with 160 ppm sucralose and a beverage with 120 ppm sucralose and 12 ppm test compound A01. Of the 45 panelists, 22 selected the former, and 23 selected the latter, which is a statistical equivalence.

[1] = +20 ppm in 5% sucrose solution (Table 2)

Structure (SMILES) | Sweetness (0-10) (taste panelists; +5 ppm in 5% (w/w) sucrose solution in Henniez water) | Sweetness (0-10) (taste panelists; +10 ppm in 5% (w/w) sucrose solution in Henniez water) | Sweetness (0-10) (taste panelists; [1]) | Reduction in concentration of sucralose permitted (panelists; 12 ppm test compound, 160 ppm to 120 ppm sucralose) | Reduction in concentration of rebaudioside M permitted (panelists; 12 ppm test compound, 450 ppm to 300 ppm rebaudioside M) | Panelists (of 45) who selected the beverage with test compound (panelists; 120 ppm sucralose + 12 ppm A01 versus 160 ppm sucralose) | Panelists (of 45) who selected the beverage with test compound (panelists; 300 ppm rebaudioside M + 12 ppm A01 versus 450 ppm rebaudioside M) | Sweetness (0-10) (taste panelists; +50 ppm in 5% (w/w) sucrose solution in Henniez water)
CC(=O)O[C@H]1C(=O)c2c(O)cc(O)cc2O[C@@H]1c1ccc(O)cc1 [A01, (2R,3R)-3-acetoxy-5,7,4′-trihydroxyflavanone] | 7.0 | 8.0 | 8.8 | 25% | 33% | 23 | 22 | –
CC(=O)OC1C(=O)c2c(O)cc(O)cc2OC1c1cc(O)c(O)c(O)c1 (stereo not drawn) [A03, ampelopsin 3-O-acetate, reference compound] | – | – | 5.1 | – | – | – | – | –
O=C1C[C@@H](c2ccc(O)cc2)Oc2cc(O)cc(O)c21 [naringenin, reference compound] | – | – | – | – | – | – | – | 5.8
